Experimental findings from the Deep4Chem optical property database are described below.

This data set can be described thus: photoluminescence quantum yield (fraction); solvent given as SMILES.

`CCCCCCOc1cc(/C=C/c2cc(OCCCCCC)c(/C=C/c3cc(OCCCCCC)c(C=C(C#N)C#N)cc3OCCCCCC)cc2OCCCCCC)c(OCCCCCC)cc1C=C(C#N)C#N` showed a photoluminescence quantum yield (in ClCCl) of 0.13.
As for `CCCCCCC1(CCCCCC)c2cc(-c3nc(-c4ccc5c(c4)C(CCCCCC)(CCCCCC)c4cc(N6c7ccccc7Oc7ccccc76)ccc4-5)nc(-c4ccc5c(c4)C(CCCCCC)(CCCCCC)c4cc(N6c7ccccc7Oc7ccccc76)ccc4-5)n3)ccc2-c2ccc(N3c4ccccc4Oc4ccccc43)cc21`, the photoluminescence quantum yield (in C1CCOC1) came to 0.02, the photoluminescence quantum yield (in CCCCCC) is 0.52, the photoluminescence quantum yield (in Cc1ccccc1) worked out at 0.45 and the photoluminescence quantum yield (in ClCCl) was determined as 0.01.
With `CCOC(=O)c1c2c3c(ccc(Br)c3c3cc4c(cc13)[Si](C)(C)O[Si]4(C)C)N(C)C2=O`, under “in CC#N”, the photoluminescence quantum yield was 0.31.
In turn, `CC(C)(C)c1cc2c(c(C(C)(C)C)c1)O[B-]1(c3ccc([B-]45OC(c6ccccc6)=N[N+]4=Cc4cc(C(C)(C)C)cc(C(C)(C)C)c4O5)cc3)OC(c3ccccc3)=N[N+]1=C2` (configuration not stated) showed a photoluminescence quantum yield (in C1CCOC1) of 0.001.
`CN(C)CCN(Cc1c2ccccc2cc2ccccc12)c1ccc([N+](=O)[O-])cc1`: the photoluminescence quantum yield runs as follows: (in C1CCCCC1) 0.0008; (in C1CCOC1) 0.0015; (in CC#N) 0.0143; (in CC(C)=O) 0.022; (in CCO) 0.023; (in CN(C)C=O) 0.0411. For the same compound, the photoluminescence quantum yield reads like this: (in CO) 0.0606; (in ClC(Cl)Cl) 0.0272.
`C(#Cc1ccc(-n2c3ccccc3c3ccccc32)cc1)c1ccc(-c2nc(-c3ccc(C#Cc4ccc(-n5c6ccccc6c6ccccc65)cc4)cc3)nc(-c3ccc(C#Cc4ccc(-n5c6ccccc6c6ccccc65)cc4)cc3)n2)cc1` showed a photoluminescence quantum yield (in C1CCOC1) of 0.69; a photoluminescence quantum yield (in CC#N) of 0.02; a photoluminescence quantum yield (in CCCCCC) of 0.94; a photoluminescence quantum yield (in Cc1ccccc1) of 1; a photoluminescence quantum yield (in ClCCl) of 0.67.
Consider `CC(C)(C)c1ccc2c(c1)c1cc(C(C)(C)C)ccc1n2-c1ccc(S(=O)(=O)c2ccc(-n3c4ccc(C(C)(C)C)cc4c4cc(C(C)(C)C)ccc43)cn2)nc1`, for which the photoluminescence quantum yield (in O=P(c1ccccc1)(c1ccccc1)c1ccc2sc3cccc(P(=O)(c4ccccc4)c4ccccc4)c3c2c1) came out at 0.62.
On to `CC1=[N+]2C(=C(c3c4ccccc4c(-c4ccccc4)c4ccccc34)c3ccc(C)n3[B-]2(F)F)C=C1`, for which the photoluminescence quantum yield (in CC#N) was determined as 0.004; the photoluminescence quantum yield (in CCCCCC) turned out to be 0.773; the photoluminescence quantum yield (in CCO) was 0.006; the photoluminescence quantum yield (in CN(C)C=O) was found to be 0.004; the photoluminescence quantum yield (in Cc1ccccc1) is 0.141; the photoluminescence quantum yield (in ClCCl) amounted to 0.007.
`O=C1CCCC2=C1C(c1ccccc1)c1c(c3ccccc3oc1=O)N2` (configuration not stated) yielded a photoluminescence quantum yield (in CS(C)=O) of 0.41.
Regarding `CCOC(=O)C1=CN(Cc2ccccc2)C=C(C(=O)OCC)C1`, the photoluminescence quantum yield was determined as 0.31 (in C1CCOC1) and 0.24 (in CO).
For the compound `C[SiH]1c2ccccc2-c2cc3c(cc21)-c1ccccc1[SiH]3C` (configuration not stated), under “in ClCCl”, the photoluminescence quantum yield stood at 0.5.
The compound `CCCCCCCCn1c(=O)c2cc3cc4cc5c(=O)n(CCCCCCCC)c(=O)c5cc4c(C#Cc4ccc(N(c5ccccc5)c5ccccc5)cc4)c3cc2c1=O` came in with a photoluminescence quantum yield (in ClC(Cl)Cl) of 0.39.
The compound `COC(=O)/C=C/C=C/C1=CC2=C(c3c(C)cc(C)cc3C)c3cc(/C=C/C=C/C(=O)OC)cn3[B-](F)(F)[N+]2=C1` returned a photoluminescence quantum yield (in ClCCl) of 0.054.
With `CC(C)(C)c1ccc2c(c1)c1cc(C(C)(C)C)ccc1n2-c1ccc2c(c1)C(=O)c1ccc(-n3c4ccc(C(C)(C)C)cc4c4cc(C(C)(C)C)ccc43)cc1C2=O`, the photoluminescence quantum yield runs as follows: (in Cc1ccccc1) 0.15; (in c1ccc2c(c1)c1ccccc1n2-c1ccc(-c2ccc(-n3c4ccccc4c4ccccc43)cc2)cc1) 0.52.
In turn, `F[B-]1(F)n2c(c3ccccc3c2-c2ccccc2)N=C2c3ccccc3C(c3ccccc3)=[N+]21` had a photoluminescence quantum yield (in ClCCl) of 0.14.
`CC(C)[Si](C#Cc1c2nc3ccccc3nc2c(C#C[Si](C(C)C)(C(C)C)C(C)C)c2nc3c(ccc4cc5ccccc5cc43)nc12)(C(C)C)C(C)C` had a photoluminescence quantum yield (in CCCCCC) of 0.25.
`CCCCCCc1cc2c(s1)-c1cc3c(cc1NB2c1ccccc1)-c1sc(CCCCCC)cc1B(c1ccccc1)N3`: the photoluminescence quantum yield (in ClCCl) was 0.2.
In the case of `COc1ccc2c(c1)sc1[n+]2[B-](F)(F)OC(c2ccc(N(C)C)cc2)=N1`, the photoluminescence quantum yield (in C1CCOC1) came out at 0.8; the photoluminescence quantum yield (in CC#N) was determined as 0.38; the photoluminescence quantum yield (in CC(C)=O) stood at 0.56; the photoluminescence quantum yield (in Cc1ccccc1) worked out at 0.88; the photoluminescence quantum yield (in ClCCl) stood at 0.83.
`c1cc2c3c(c1)OCCCCCCOc1cccc(c1-c1c4ccccc4c-3c3ccccc13)OCCCCCCO2` returned a photoluminescence quantum yield (in C1CCCCC1) of 0.93.
Turning to `CCOc1cc(C=C2c3ccccc3-c3ccccc32)c(OCC)cc1C=C1c2ccccc2C=Cc2ccccc21`, the photoluminescence quantum yield (in C1CCOC1) is 0.00012.
Under “in ClCCl”, `CC(C)(C)C#Cc1cc2c(C#CC(C)(C)C)c(C#CC(C)(C)C)c3cc(C#CC(C)(C)C)cc4c(C#CC(C)(C)C)c(C#CC(C)(C)C)c(c1)c2c34` displayed a photoluminescence quantum yield of 0.12.
Regarding `CC[N+]1(CC)CN2C(=N1)C(C(=O)[O-])=Cc1ccccc12`, the photoluminescence quantum yield (in CN(C)C=O) turned out to be 0.05 and the photoluminescence quantum yield (in O) is 0.736.
For the setting “in CC#N”, `C(#Cc1nccnc1C#Cc1ccccc1)c1ccccc1` returned a photoluminescence quantum yield of 0.07.
On to `COc1nnc(Cl)nn1`, for which the photoluminescence quantum yield (in ClCCl) turned out to be 0.38 and the photoluminescence quantum yield (in OCC(F)(F)F) was 0.26.
`Cc1cn2cc(-c3ccccc3)[n-][n+]2c1` showed a photoluminescence quantum yield (in ClCCl) of 0.074.
For `CCC1=C(C)C2=Cc3c4ccccc4c4n3[B-](c3cc[n+](C)cc3)(Oc3ccccc3-4)[N+]2=C1C=Cc1ccc(OC)cc1` (configuration not stated), the photoluminescence quantum yield reads like this: (in CO) 0.21; (in CS(C)=O) 0.26.
Consider `CC(C)(C)c1ccc2c(c1)c1cc(C(C)(C)C)ccc1n2-c1ccc(N(c2ccc(-c3ccc(N(c4ccc(-n5c6ccc(C(C)(C)C)cc6c6cc(C(C)(C)C)ccc65)cc4)c4ccc(-n5c6ccc(C(C)(C)C)cc6c6cc(C(C)(C)C)ccc65)cc4)cc3)cc2)c2ccc(-n3c4ccc(C(C)(C)C)cc4c4cc(C(C)(C)C)ccc43)cc2)cc1`, for which the photoluminescence quantum yield (in ClCCl) worked out at 0.55.
Take `CC(=O)c1ccc(-c2cnc3nn4ccccc4c3n2)cc1`: where the note is “in C1CCOC1”, the photoluminescence quantum yield was 0.5.
The compound `Fc1ccc2c(c1)sc1nc(-c3ccccc3)sc12` displayed a photoluminescence quantum yield (in CS(C)=O) of 0.36.
As for `CCN(CC)c1ccc2n1[B-](F)(F)[N+]1=CC(/C=C/C(=O)OC(C)(C)C)=CC1=C2c1c(C)cc(C)cc1C`, the photoluminescence quantum yield (in ClCCl) was determined as 0.26.
`COC(=O)C[C@H](Cc1c[nH]c2ccccc12)NC(=O)[C@H](CC(=O)N[C@@H](CC1=CCc2ccccc21)C(=O)OC)NC(=O)[C@H](Cc1c[nH]c2ccccc12)NC(=O)OC(C)(C)C`: the photoluminescence quantum yield reads like this: (in CC#N) 0.26; (in CCOC(C)=O) 0.22; (in CO) 0.1.
For `CCCCCCc1ccc(-n2c3c4cccc(OC)c4nc(-c4ccc(OC)cc4)c3c3c2c2c(-c4ccc(OC)cc4)nc4c(OC)cccc4c2n3-c2ccc(CCCCCC)cc2)cc1`, the photoluminescence quantum yield (in ClC(Cl)Cl) worked out at 0.042.
Turning to `COc1ccc(/C=C/c2nc3ccccc3s2)cc1`, the photoluminescence quantum yield (in C1CCCCC1) turned out to be 0.005 and the photoluminescence quantum yield (in CO) worked out at 0.001.
Consider `C#CCn1c2ccccc2c2cc(/C=C/c3cc(C)c4n3[B-](F)(F)[N+]3=C(C)C=C(C)C3=C4c3ccc(I)cc3)ccc21`, for which the photoluminescence quantum yield by setting is: (in CC#N) 0.77; (in CS(C)=O) 0.72; (in ClC(Cl)Cl) 0.66.
